Values joined by “and” are separate entries in the source; they are usually repeats but may differ in a detail not shown here. Identical values can stand only once.
Assays:
E. coli (ATCC 25922) = assay: Antimicrobial susceptibility (broth microdilution), EC 25922; assay type: cell-based, Escherichia coli; conditions: for MIC: Escherichia coli, ATCC25922, read-out: antibacterial activity (MIC) EC 25922; for antibacterial activity in words, EC 25922: summary of Table 1
Protocol: (§1) The following are general steps, unless otherwise noted. All steps were completed using aseptic techniques. All media and glassware were sterilized via an autoclave at 121 °C for 60 min. All agitation occurred at 160 rpm in a temperature-controlled console shaker (Excella E25) at 37 °C. Full-strength tryptic soy broth (TSB) was made by dissolving 30 g of BD Bacto TSB powder in 1 L of deionized water. Purchased and acquired bacterial strains used were E. coli (ATCC 25922), P. aeruginosa (ATCC 9027), drug-resistant P. aeruginosa from ATCC Panel MP-23 (BAA 2108, BAA 2109, BAA 2110), and P. aeruginosa efflux knockout GKCW120 (PΔ6)[6] provided by Zgurskaya and co-workers at the University of Oklahoma.
(§2) Susceptibility testing was performed in biological triplicate using the broth microdilution method as outlined by the Clinical and Laboratory Standards Institute. […] Briefly, to each well, 1 μL of compound in DMSO, 89 μL of TSB, and 10 μL of bacterial inoculum, grown from a single colony in 10 mL of TSB for 4–6 h, were added. After incubation for 12–15 h at 37 °C, absorbance at 590 nm was read on a Biotek Synergy HTX Multimode plate reader. Data were processed by background subtracting the media absorbance and then normalizing the data to full bacterial growth with the vehicle only. MIC is defined as the lowest concentration of antibiotic or antibiotic/adjuvant combination that achieves ≥85% growth inhibition, which corresponds to no visible growth.
Initial antibacterial activity screen of compounds 4, 5, and S1-S6
Compounds 4, 5, and S1-S6 were screened for initial antibiotic activity against a susceptible laboratory strain of EC (designated EC 25922), and non-virulent, biofilm forming strain of PA (designated PA 9027), and PD6 (efflux knockout strain6) at 128 µg/mL in DMSO. Sterilization and Antimicrobial Susceptibility Assay procedures utilized were the same as described in the methods.
Table S1. Antibacterial activity screening results for compounds 4, 5, and S1-S6 at 128 µg/mL
Table S1. Antibacterial activity screening results for compounds 4, 5, and S1-S6 at 128 µg/mL.

[1] = test system: drug-resistant P. aeruginosa BAA 2108; assay: Antimicrobial susceptibility (broth microdilution), BAA 2108; assay type: cell-based, Pseudomonas aeruginosa; conditions: for MIC: Pseudomonas aeruginosa, BAA2108, read-out: antibacterial activity (MIC) BAA 2108; for antibacterial activity in words, BAA 2108: summary of Table 1
Protocol: as §1, §2

[2] = test system: drug-resistant P. aeruginosa BAA 2110; assay: Antimicrobial susceptibility (broth microdilution), BAA 2110; assay type: cell-based, Pseudomonas aeruginosa; conditions: for MIC: Pseudomonas aeruginosa, BAA2110, read-out: antibacterial activity (MIC) BAA 2110
Protocol: as §1, §2

PA ATP synthase = target: T1, PA ATP synthase (Pseudomonas aeruginosa, UniProt Q9HT15); assay: NADH-driven ATP synthesis inhibition, PA inverted membrane vesicles; assay type: biochemical; conditions: for Hill coefficient of dose response fit, PA vesicles: inhibition of ATP synthesis activity; for IC50: inverted membrane vesicles from PA 9027, NADH-driven, end point luminescence assay
T1 construct: Inverted membrane vesicles were prepared from PA 9027; endogenous in cells; host or cells: Pseudomonas aeruginosa ATCC 9027, inverted membrane vesicles
Protocol: Vesicles were prepared from P. aeruginosa and transformed E. coli cells as previously described.[22] Briefly, cells were grown in LB liquid medium at 37 °C with shaking and harvested by centrifugation after 7 h of growth. Cultures of transformant E. coli included 100 μg/mL ampicillin. Cells were disrupted in TMG buffer (50 mM Tris-HCl, MgCl2, 10% (v/v) glycerol, pH 7.5) using an Avestin B15 homogenizer at 19,000 psi. After unbroken cells and debris were cleared by centrifugation at 9000g, inverted vesicles were collected by centrifugation at 193,000g, resuspended in TMG buffer, and stored at −80 °C. Protein concentrations were determined using a modified Lowry assay.[25]
(§3) Continuous ATP synthesis activity of inverted membrane vesicles was measured using a luciferin/luciferase luminescence assay as previously described.[22] Inhibition of ATP synthesis activity by test compounds was determined using an end point assay essentially as previously described.[18],[26] In this assay, the synthesis reaction was initiated by 2.5 mM NADH, proceeded for 10 min, and was stopped with 1% trichloroacetic acid, 2 mM CCCP, and 10 mM EDTA. Samples from each reaction were diluted 500-fold prior to the addition of luciferase since quinoline compounds are known to inhibit luciferase.[27] This dilution was sufficient to minimize inhibition of luciferase (Figure S4). Each replicate set included a positive control containing DMSO with no compound and a negative control containing carbonyl cyanide m-chlorophenyl hydrazone. Luminescence values were corrected for the background by subtracting the negative control and then normalized to the positive control within the same replicate. Dose–response curves were fit using eq 1, where activity is the relative ATP synthesis activity, [I] is the concentration of inhibitor in μg/mL, and n is the Hill coefficient. [drawing 1] 1

[3] = test system: EC electron transport chain; assay: Electron transport activity (NADH-driven H+ pumping, ACMA quenching), E. coli DK8/pASH20 vesicles; assay type: biochemical, Escherichia coli; conditions: for inhibition of EC ETC-driven H+ pumping, in words: 0-64 µg/mL, Figure S2; for Inhibition of the EC electron transport chain IC50: EC (DK8/pASH20) vesicles
Protocol: Determination of electron transport activity. In an opaque black 96-well plate, inverted membrane
vesicles from PA or E. coli DK8 pASH20 were added to HMK buffer containing 0.3 µg/mL 9-amino-6-chloro-
2-methoxyacridine (ACMA) and 0-64 µg/mL test compound in DMSO. After measurement of baseline
ACMA fluorescence for 60 s, redox-driven H+ pumping was initiated by addition of NADH to 0.8 mM, and
fluorescence quenching was monitored for 120 s before addition of nigericin to 0.5 µg/mL. Relative
activity is reported as the minimum fluorescence value normalized to the maximum fluorescence value
following addition of nigericin. […]

luciferase = luciferase (Photinus pyralis, UniProt P08659); assay: Inhibition of luciferase by quinoline compounds; assay type: biochemical; conditions: after 500-fold dilution; Figure S4
Protocol: as §3
Table S2: All IC50 values and Hill coefficients for dose response fits of inhibition of ATP synthesis activity. […]
luciferase) at the indicated concentrations, and luminescence was measured after the addition of ATP to […]

Sequence of luciferase (P08659 whole entry): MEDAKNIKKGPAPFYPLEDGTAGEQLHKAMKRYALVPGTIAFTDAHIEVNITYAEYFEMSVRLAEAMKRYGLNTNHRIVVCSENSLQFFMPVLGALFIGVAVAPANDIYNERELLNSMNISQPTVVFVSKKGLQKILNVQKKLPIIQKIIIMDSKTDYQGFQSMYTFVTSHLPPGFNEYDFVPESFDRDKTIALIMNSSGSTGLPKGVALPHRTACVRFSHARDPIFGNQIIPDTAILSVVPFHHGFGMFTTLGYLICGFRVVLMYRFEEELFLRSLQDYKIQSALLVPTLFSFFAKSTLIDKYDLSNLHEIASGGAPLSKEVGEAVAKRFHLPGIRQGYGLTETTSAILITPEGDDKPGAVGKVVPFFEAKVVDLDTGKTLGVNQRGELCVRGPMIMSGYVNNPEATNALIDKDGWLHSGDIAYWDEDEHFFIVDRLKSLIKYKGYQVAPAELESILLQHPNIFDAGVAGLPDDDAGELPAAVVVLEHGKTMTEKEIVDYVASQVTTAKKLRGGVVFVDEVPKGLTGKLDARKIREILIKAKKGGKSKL

SMILES	MIC (E. coli (ATCC 25922)) [mg/L]	antibacterial activity in words, EC 25922 (E. coli (ATCC 25922))	MIC [1] [mg/L]	antibacterial activity in words, BAA 2108 [1]	MIC [2] [mg/L]	Hill coefficient of dose response fit, PA vesicles (PA ATP synthase)	IC50 (PA ATP synthase)	inhibition of EC ETC-driven H+ pumping, in words [3]	Inhibition of the EC electron transport chain IC50 [3] [mg/L]	inhibition of luciferase, in words (luciferase)	Antibacterial activity screening result, EC 25922 (E. coli (ATCC 25922); at 128 µg/mL in DMSO)	antibacterial activity in words, BAA 2110 ([2]; summary of Table 1)
CSc1nc2ccccc2cc1CNCc1ccc(CN(C)C)cc1 [Compound 4, N,N-Dimethyl-1-(4-((((2-(methylthio)quinolin-3-yl)methyl)amino)methyl)phenyl)methanamine]	256	weakly inhibit	128 to 256	able to inhibit	> 256	0.8	31.3 µM and 31.6 µM	mildly inhibited	61	did not significantly inhibit		
CN(C)Cc1ccc(CNCc2cc3ccccc3nc2SCc2ccccc2)cc1 [Compound 5, 1-(4-((((2-(Benzylthio)quinolin-3-yl)methyl)amino)methyl)phenyl)-N,N-dimethylmethanamine]	64	more potent	64	more potent	> 128	0.8	1.64 µM	mildly inhibited	>64	did not significantly inhibit	I	inactive
